{"source": "patent US8614327B2", "about": "(Vertex Pharmaceuticals Incorporated, priority 2004, dated 2013)", "biological_target": "T1, ΔF508-CFTR (Homo sapiens, UniProt P13569, DEL508-508)", "T1 construct": "expressed in transfected cells", "T1 sequence (P13569 with tags, fused parts or gaps DEL508-508)": "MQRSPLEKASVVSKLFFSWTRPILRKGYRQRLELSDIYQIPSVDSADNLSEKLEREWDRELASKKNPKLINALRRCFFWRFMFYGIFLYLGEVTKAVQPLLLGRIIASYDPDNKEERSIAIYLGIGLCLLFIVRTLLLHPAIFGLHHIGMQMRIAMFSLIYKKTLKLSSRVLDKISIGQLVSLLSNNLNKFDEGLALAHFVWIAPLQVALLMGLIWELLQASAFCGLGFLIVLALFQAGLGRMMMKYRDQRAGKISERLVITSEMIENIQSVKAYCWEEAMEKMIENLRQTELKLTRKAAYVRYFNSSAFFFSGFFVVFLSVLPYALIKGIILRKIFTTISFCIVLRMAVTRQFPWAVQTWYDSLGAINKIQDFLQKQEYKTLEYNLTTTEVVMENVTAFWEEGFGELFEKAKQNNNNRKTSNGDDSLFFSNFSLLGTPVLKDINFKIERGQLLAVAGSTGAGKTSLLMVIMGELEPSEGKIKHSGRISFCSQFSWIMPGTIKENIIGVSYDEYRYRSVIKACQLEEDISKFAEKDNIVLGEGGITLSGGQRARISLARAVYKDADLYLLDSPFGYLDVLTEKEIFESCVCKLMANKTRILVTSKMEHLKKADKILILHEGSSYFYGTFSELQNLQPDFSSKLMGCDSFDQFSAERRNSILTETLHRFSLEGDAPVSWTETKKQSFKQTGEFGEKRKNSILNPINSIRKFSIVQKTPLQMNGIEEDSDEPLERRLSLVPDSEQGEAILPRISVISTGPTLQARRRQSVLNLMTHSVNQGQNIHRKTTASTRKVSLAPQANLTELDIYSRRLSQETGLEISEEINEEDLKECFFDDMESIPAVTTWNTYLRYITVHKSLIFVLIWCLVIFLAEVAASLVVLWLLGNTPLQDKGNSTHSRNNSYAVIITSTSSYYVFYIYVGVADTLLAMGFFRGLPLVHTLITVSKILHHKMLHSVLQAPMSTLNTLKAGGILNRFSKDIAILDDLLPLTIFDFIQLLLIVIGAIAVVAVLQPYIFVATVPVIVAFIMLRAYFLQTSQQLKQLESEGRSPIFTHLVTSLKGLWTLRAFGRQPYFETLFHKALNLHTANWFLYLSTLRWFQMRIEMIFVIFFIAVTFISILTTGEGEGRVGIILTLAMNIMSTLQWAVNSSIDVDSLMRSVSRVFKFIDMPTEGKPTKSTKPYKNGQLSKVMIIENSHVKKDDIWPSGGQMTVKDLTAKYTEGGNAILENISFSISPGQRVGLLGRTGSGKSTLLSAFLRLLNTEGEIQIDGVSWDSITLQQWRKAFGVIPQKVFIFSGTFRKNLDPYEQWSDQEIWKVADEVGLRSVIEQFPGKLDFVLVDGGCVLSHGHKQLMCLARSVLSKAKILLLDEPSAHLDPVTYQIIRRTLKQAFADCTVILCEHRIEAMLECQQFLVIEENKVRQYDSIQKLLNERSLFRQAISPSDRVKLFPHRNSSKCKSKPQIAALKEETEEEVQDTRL", "experiment": "Membrane potential optical (FRET/VIPR) assay, identification of potentiator compounds", "type": "cell-based", "conditions": "Table 3, assay not given; for % Activity: relative efficacy", "method_in_brief": "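NIH3T3 mouse fibroblasts stably expressing ΔF508-CFTR, temperature-corrected 24 h at 27° C., read on VIPR by FRET between CC2-DMPE and DiSBAC2(3). Potentiators identified in a double-addition format, first adding chloride-free (gluconate) medium with or without compound.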", "data": [{"smiles": "C=C(C)c1ccccc1NC(=O)c1c[nH]c2ccccc2c1=O", "note": "[Compound 445, N-(2-isopropenylphenyl)-4-oxo-1H-quinoline-3-carboxamide]", "values": [{"measurement": "EC50", "value": "< 10", "unit": "µM"}, {"measurement": "% Activity", "value": "+++ (>100%)"}]}, {"smiles": "O=C(Nc1ccc2c(c1)S(=O)(=O)C=C2)c1c[nH]c2ccccc2c1=O", "note": "[Compound 446, N-(1,1-dioxobenzothiophen-6-yl)-4-oxo-1H-quinoline-3-carboxamide]", "values": [{"measurement": "EC50", "value": "25 to 60", "unit": "µM"}, {"measurement": "% Activity", "value": "+ (<25%)"}]}, {"smiles": "N#Cc1cccc(NC(=O)c2c[nH]c3ccccc3c2=O)c1", "note": "[Compound 447, N-(3-cyanophenyl)-4-oxo-1H-quinoline-3-carboxamide]", "values": [{"measurement": "EC50", "value": "10 to 25", "unit": "µM"}, {"measurement": "% Activity", "value": "++ (between 25% to 100%)"}]}, {"smiles": "CC(C)(C)c1ccc(NC(=O)c2c[nH]c3ccccc3c2=O)cc1", "note": "[Compound 448, 4-oxo-N-(4-tert-butylphenyl)-1H-quinoline-3-carboxamide]", "values": [{"measurement": "EC50", "value": "< 10", "unit": "µM"}, {"measurement": "% Activity", "value": "++ (between 25% to 100%)"}]}, {"smiles": "Cc1cccc(NC(=O)c2c[nH]c3ccccc3c2=O)c1", "note": "[Compound 449, N-(m-tolyl)-4-oxo-1H-quinoline-3-carboxamide]", "values": [{"measurement": "EC50", "value": "< 10", "unit": "µM"}, {"measurement": "% Activity", "value": "++ (between 25% to 100%)"}]}, {"smiles": "CC(O)c1ccc(NC(=O)c2c[nH]c3ccccc3c2=O)cc1", "note": "(stereo not shown) [Compound 450, N-[4-(1-hydroxyethyl)phenyl]-4-oxo-1H-quinoline-3-carboxamide]", "values": [{"measurement": "EC50", "value": "10 to 25", "unit": "µM"}, {"measurement": "% Activity", "value": "++ (between 25% to 100%)"}]}, {"smiles": "CCc1cc(C#N)ccc1NC(=O)c1c[nH]c2ccccc2c1=O", "note": "[Compound 451, N-(4-cyano-2-ethyl-phenyl)-4-oxo-1H-quinoline-3-carboxamide]", "values": [{"measurement": "EC50", "value": "< 10", "unit": "µM"}, {"measurement": "% Activity", "value": "++ (between 25% to 100%)"}]}, {"smiles": "C=Cc1ccc(NC(=O)c2c[nH]c3ccccc3c2=O)cc1", "note": "[Compound 452, 4-oxo-N-(4-vinylphenyl)-1H-quinoline-3-carboxamide]", "values": [{"measurement": "EC50", "value": "< 10", "unit": "µM"}, {"measurement": "% Activity", "value": "++ (between 25% to 100%)"}]}, {"smiles": "Nc1cc(NC(=O)c2c[nH]c3ccccc3c2=O)ccc1Cl", "note": "[Compound 453, N-(3-amino-4-chloro-phenyl)-4-oxo-1H-quinoline-3-carboxamide]", "values": [{"measurement": "EC50", "value": "< 10", "unit": "µM"}, {"measurement": "% Activity", "value": "++ (between 25% to 100%)"}]}, {"smiles": "Cc1ccc(-c2ccccc2)cc1NC(=O)c1c[nH]c2ccccc2c1=O", "note": "[Compound 454, N-(2-methyl-5-phenyl-phenyl)-4-oxo-1H-quinoline-3-carboxamide]", "values": [{"measurement": "EC50", "value": "25 to 60", "unit": "µM"}, {"measurement": "% Activity", "value": "+ (<25%)"}]}, {"smiles": "O=C(Nc1ccc(C23CC4CC(CC(C4)C2)C3)cc1)c1c[nH]c2ccccc2c1=O", "note": "[Compound 455, N-[4-(1-adamantyl)phenyl]-4-oxo-1H-quinoline-3-carboxamide]", "values": [{"measurement": "EC50", "value": "< 10", "unit": "µM"}, {"measurement": "% Activity", "value": "++ (between 25% to 100%)"}]}, {"smiles": "O=C(Nc1cccc(SC(F)(F)F)c1)c1c[nH]c2ccccc2c1=O", "note": "[Compound 456, 4-oxo-N-[3-(trifluoromethylsulfanyl)phenyl]-1H-quinoline-3-carboxamide]", "values": [{"measurement": "EC50", "value": "< 10", "unit": "µM"}, {"measurement": "% Activity", "value": "++ (between 25% to 100%)"}]}, {"smiles": "O=C(Nc1ccc(N2CCOCC2)cc1)c1c[nH]c2ccccc2c1=O", "note": "[Compound 457, N-(4-morpholinophenyl)-4-oxo-1H-quinoline-3-carboxamide]", "values": [{"measurement": "EC50", "value": "25 to 60", "unit": "µM"}, {"measurement": "% Activity", "value": "+ (<25%)"}]}, {"smiles": "CC(C)(C)c1ccc(NC(=O)c2c[nH]c3ccccc3c2=O)cc1OCCO", "note": "[Compound 458, N-[3-(2-hydroxyethoxy)-4-tert-butyl-phenyl]-4-oxo-1H-quinoline-3-carboxamide]", "values": [{"measurement": "EC50", "value": "< 10", "unit": "µM"}, {"measurement": "% Activity", "value": "++ (between 25% to 100%)"}]}, {"smiles": "Cc1ccccc1NC(=O)c1c[nH]c2ccccc2c1=O", "note": "[Compound 459, N-(o-tolyl)-4-oxo-1H-quinoline-3-carboxamide]", "values": [{"measurement": "EC50", "value": "< 10", "unit": "µM"}, {"measurement": "% Activity", "value": "++ (between 25% to 100%)"}]}, {"smiles": "CCCCOC(=O)NCC(C)(C)c1ccc(NC(=O)c2c[nH]c3ccccc3c2=O)cc1", "note": "[Compound 460, [2-methyl-2-[4-[(4-oxo-1H-quinolin-3-yl)carbonylamino]phenyl]-propyl]aminoformic acid butyl ester]", "values": [{"measurement": "EC50", "value": "< 10", "unit": "µM"}, {"measurement": "% Activity", "value": "++ (between 25% to 100%)"}]}, {"smiles": "O=C(Nc1ccccc1-c1ccccc1)c1c[nH]c2ccccc2c1=O", "note": "[Compound 461, 4-oxo-N-(2-phenylphenyl)-1H-quinoline-3-carboxamide]", "values": [{"measurement": "EC50", "value": "< 10", "unit": "µM"}, {"measurement": "% Activity", "value": "++ (between 25% to 100%)"}]}, {"smiles": "CCCc1ccc(NC(=O)c2c[nH]c3ccccc3c2=O)cc1N(C)C", "note": "[Compound 462, N-(3-dimethylamino-4-propyl-phenyl)-4-oxo-1H-quinoline-3-carboxamide]", "values": [{"measurement": "% Activity", "value": "++ (between 25% to 100%)"}]}, {"smiles": "CCc1ccc(NC(=O)c2c[nH]c3ccccc3c2=O)cc1", "note": "[Compound 463, N-(4-ethylphenyl)-4-oxo-1H-quinoline-3-carboxamide]", "values": [{"measurement": "% Activity", "value": "++ (between 25% to 100%)"}]}, {"smiles": "CC(C)(C)c1cc(C(C)(C)C)c(NC(=O)c2c[nH]c3cccc(O)c3c2=O)cc1O", "note": "[Compound 464, 5-hydroxy-N-(5-hydroxy-2,4-ditert-butyl-phenyl)-4-oxo-1H-quinoline-3-carboxamide]", "values": [{"measurement": "EC50", "value": "< 10", "unit": "µM"}, {"measurement": "% Activity", "value": "++ (between 25% to 100%)"}]}, {"smiles": "CC(C)(C)OC(=O)NCc1cc(NC(=O)c2c[nH]c3ccccc3c2=O)ccc1C(C)(C)C", "note": "[Compound 465, [5-[(4-oxo-1H-quinolin-3-yl)carbonylamino]-2-tert-butyl-phenyl]methylaminoformic acid tert-butyl ester]", "values": [{"measurement": "EC50", "value": "< 10", "unit": "µM"}, {"measurement": "% Activity", "value": "++ (between 25% to 100%)"}]}, {"smiles": "CC(C)c1cccc(C(C)C)c1NC(=O)c1c[nH]c2ccccc2c1=O", "note": "[Compound 466, N-(2,6-diisopropylphenyl)-4-oxo-1H-quinoline-3-carboxamide]", "values": [{"measurement": "EC50", "value": "< 10", "unit": "µM"}, {"measurement": "% Activity", "value": "++ (between 25% to 100%)"}]}, {"smiles": "O=C(Nc1ccc2c(c1)CCO2)c1c[nH]c2ccccc2c1=O", "note": "[Compound 467, N-(2,3-dihydrobenzofuran-5-yl)-4-oxo-1H-quinoline-3-carboxamide]", "values": [{"measurement": "EC50", "value": "25 to 60", "unit": "µM"}, {"measurement": "% Activity", "value": "+ (<25%)"}]}, {"smiles": "Cn1cc(C(=O)Nc2ccccc2)c(=O)c2ccccc21", "note": "[Compound 468, 1-methyl-4-oxo-N-phenyl-1H-quinoline-3-carboxamide]", "values": [{"measurement": "EC50", "value": "25 to 60", "unit": "µM"}, {"measurement": "% Activity", "value": "+ (<25%)"}]}, {"smiles": "O=C(Nc1ccccc1-c1ccccc1)c1c[nH]c2cc(C(F)(F)F)ccc2c1=O", "note": "[Compound 469, 4-oxo-N-(2-phenylphenyl)-7-(trifluoromethyl)-1H-quinoline-3-carboxamide]", "values": [{"measurement": "EC50", "value": "< 10", "unit": "µM"}, {"measurement": "% Activity", "value": "++ (between 25% to 100%)"}]}, {"smiles": "O=C(Nc1ccc(Sc2ccccc2)cc1)c1c[nH]c2ccccc2c1=O", "note": "[Compound 470, 4-oxo-N-(4-phenylsulfanylphenyl)-1H-quinoline-3-carboxamide]", "values": [{"measurement": "EC50", "value": "< 10", "unit": "µM"}, {"measurement": "% Activity", "value": "++ (between 25% to 100%)"}]}, {"smiles": "CCCc1ccc(NC(=O)OC)cc1NC(=O)c1c[nH]c2ccccc2c1=O", "note": "[Compound 471, [3-[(4-oxo-1H-quinoline-3-yl)carbonylamino]-4-propyl-phenyl]aminoformic acid methyl ester]", "values": [{"measurement": "EC50", "value": "< 10", "unit": "µM"}, {"measurement": "% Activity", "value": "++ (between 25% to 100%)"}]}, {"smiles": "CCOC(=O)Nc1ccc(CC)c(NC(=O)c2c[nH]c3ccccc3c2=O)c1", "note": "[Compound 472, [4-ethyl-3-[(4-oxo-1H-quinolin-3-yl)carbonylamino]phenyl]aminoformic acid ethyl ester]", "values": [{"measurement": "% Activity", "value": "++ (between 25% to 100%)"}]}, {"smiles": "CC(C)n1cc(C(=O)Nc2ccccc2C(C)(C)C)c(=O)c2ccccc21", "note": "[Compound 473, 1-isopropyl-4-oxo-N-(2-tert-butylphenyl)-1H-quinoline-3-carboxamide]", "values": [{"measurement": "EC50", "value": "10 to 25", "unit": "µM"}, {"measurement": "% Activity", "value": "++ (between 25% to 100%)"}]}, {"smiles": "Cn1c(=O)oc2ccc(NC(=O)c3c[nH]c4ccccc4c3=O)cc21", "note": "[Compound 474, N-(3-methyl-2-oxo-3H-benzooxazol-5-yl)-4-oxo-1H-quinoline-3-carboxamide]", "values": [{"measurement": "EC50", "value": "25 to 60", "unit": "µM"}, {"measurement": "% Activity", "value": "+ (<25%)"}]}, {"smiles": "CC(C)(C)c1cc(C#N)c(NC(=O)c2c[nH]c3ccccc3c2=O)cc1O", "note": "[Compound 476, N-(4-tert-Butyl-2-cyano-5-hydroxyphenyl)-1,4-dihydro-4-oxoquinoline-3-carboxamide]", "values": [{"measurement": "EC50", "value": "< 10", "unit": "µM"}, {"measurement": "% Activity", "value": "++ (between 25% to 100%)"}]}, {"smiles": "O=C(Nc1ccc(F)cn1)c1c[nH]c2ccccc2c1=O", "note": "[Compound 477, N-(5-fluoro-2-pyridyl)-4-oxo-1H-quinoline-3-carboxamide]", "values": [{"measurement": "EC50", "value": "25 to 60", "unit": "µM"}, {"measurement": "% Activity", "value": "+ (<25%)"}]}, {"smiles": "CC(C)(C)c1c[nH]c2cc(NC(=O)c3c[nH]c4ccccc4c3=O)ccc12", "note": "[Compound 478, 4-oxo-N-(3-tert-butyl-1H-indol-6-yl)-1H-quinoline-3-carboxamide]", "values": [{"measurement": "EC50", "value": "< 10", "unit": "µM"}, {"measurement": "% Activity", "value": "++ (between 25% to 100%)"}]}, {"smiles": "COc1cccc2[nH]cc(C(=O)Nc3ccc4cc[nH]c4c3)c(=O)c12", "note": "[Compound 479, N-(1H-indol-6-yl)-5-methoxy-4-oxo-1H-quinoline-3-carboxamide]", "values": [{"measurement": "EC50", "value": "< 10", "unit": "µM"}, {"measurement": "% Activity", "value": "++ (between 25% to 100%)"}]}, {"smiles": "CCn1cc(C(=O)Nc2ccccc2)c(=O)c2cc(OC)ccc21", "note": "[Compound 480, 1-ethyl-6-methoxy-4-oxo-N-phenyl-1H-quinoline-3-carboxamide]", "values": [{"measurement": "EC50", "value": "25 to 60", "unit": "µM"}, {"measurement": "% Activity", "value": "+ (<25%)"}]}]}
